Data published in US20240329043A1, “METHOD FOR STRATIFICATION AND TREATMENT OF MULTIPLE SCLEROSIS” (Universität Zurich, priority 2021, published 2024).

Key:
[1] = tested on: CSF-infiltrating CD4+ T cells from MS patients; conditions: peptide 10 μM, 105 MS patients; for Positive wells % Proliferation: quadruplicates (420 wells per peptide), well positive if SI≥2, 72 h; for Positive patients % Proliferation: patient positive if mean SI of four wells ≥2 and at least 3 of four wells SI≥2
Procedure: CSF-infiltrating CD4+ T cells were expanded with PHA in a single round of stimulation using a previously reported protocol aimed to reduce TCR repertoire bias (Planas et al., 2008, Sci Transl Med, 10(462):eaat4301). 6×10^4 PHA-expanded CSF-infiltrating CD4^+ T cells were seeded in quadruplicate with 2×10^5 irradiated autologous PBMCs as antigen presenting cells and stimulated with peptides (Table 2) at a final concentration of 10 μM and with a T Cell Activation Kit (anti-CD3, anti-CD28, anti-CD2 beads) (Miltenyi Biotec) as positive control.
(§1) Proliferation was measured 72 h after stimulation using 3H-thymidine (Hartmann Analytic, Braunschweig, Germany) as previously reported (Planas et al., 2018). The stimulation index of single wells (SI) was calculated as follows: SI=(cpm well with peptide)/(Mean cpm wells without peptide). A well was considered positive if SI≥2.

[2] = tested on: CSF-infiltrating CD4+ T cells from MS patients; conditions: peptide 10 μM; 105 MS patients, quadruplicates; well positive if IFN-γ≥20 pg/ml
Procedure: 6×10^4 PHA-expanded CSF-infiltrating CD4^+ T cells were seeded in quadruplicate with 2×10^5 irradiated autologous PBMCs as antigen presenting cells and stimulated with peptides (Table 2) at a final concentration of 10 μM and with a T Cell Activation Kit (anti-CD3, anti-CD28, anti-CD2 beads) (Miltenyi Biotec) as positive control.
(§2) Release of IFN-γ was measured using the ELISA MAX™ Deluxe Set Human IFN-γ (Biolegend, San Diego, CA, USA) according to the manufacturer's instructions. A well was considered positive if IFN-γ≥20 pg/ml and a patient was considered positive for a peptide if the mean IFN-γ of the four wells was ≥20 pg/ml and at least 3 of the 4 wells were positive.

[3] = tested on: CSF-infiltrating CD4+ T cells from MS patients; assay: Reactivity of CSF-infiltrating CD4+ T cells by proliferation and/or IFN-γ release taken together (responder classification, comparison of readouts); conditions: of 105 MS patients; main or only reactivity in proliferation and/or IFN-γ release
Procedure: PBMCs were freshly isolated using Ficoll (Eurobio, Germany) density gradient centrifugation. CSF-infiltrating CD4+ T cells were expanded with PHA in a single round of stimulation using a previously reported protocol aimed to reduce TCR repertoire bias (Planas et al., 2008, Sci Transl Med, 10(462):eaat4301). 6×10^4 PHA-expanded CSF-infiltrating CD4^+ T cells were seeded in quadruplicate with 2×10^5 irradiated autologous PBMCs as antigen presenting cells and stimulated with peptides (Table 2) at a final concentration of 10 μM and with a T Cell Activation Kit (anti-CD3, anti-CD28, anti-CD2 beads) (Miltenyi Biotec) as positive control.
as §1, §2

## TAQTRALFEKVQPTH (listed as Homo sapiens) [GDP-L-FS (51-65)]
[1]
  Positive wells % Proliferation: 5.48%
  Positive patients % Proliferation: 3.80%
[2]
  Positive wells % IFNγ release: 7.16%

## YGCTFTAVIPTNVFG (listed as Homo sapiens) [GDP-L-FS (161-175)]
[1]
  Positive wells % Proliferation: 7.38%
  Positive patients % Proliferation: 6.66%
[2]
  Positive wells % IFNγ release: 6.92%

## PHNSNFGYSYAKRMI (listed as Homo sapiens) [GDP-L-FS (136-150)]
[1]
  Positive wells % Proliferation: 7.14%
  Positive patients % Proliferation: 5.71%
[2]
  Positive wells % IFNγ release: 8.35%

## HCLGKWLGHPDKFVGI (listed as Homo sapiens) [PLP (139-154)]
[1]
  Positive wells % Proliferation: 1.92%
  Positive patients % Proliferation: 0.96%
[2]
  Positive wells % IFNγ release: 3.86%

## AQGTLSKIFKLGGRDSRSGSPMARR (listed as Homo sapiens) [MBP (146-170)]
[1]
  Positive wells % Proliferation: 0.72%
  Positive patients % Proliferation: 0.00%
[2]
  Positive wells % IFNγ release: 3.86%

## GQFRVIGPRHPIRALVGDEV (listed as Homo sapiens) [MOG (1-20)]
[1]
  Positive wells % Proliferation: 1.20%
  Positive patients % Proliferation: 0.00%
[2]
  Positive wells % IFNγ release: 4.58%

## KYLATASTMDHARHGFLPRH (listed as Homo sapiens) [MBP (13-32)]
[1]
  Positive wells % Proliferation: 0.72%
  Positive patients % Proliferation: 0.00%
[2]
  Positive wells % IFNγ release: 4.34%

## EEDEVSIKEAAEAVV (listed as Homo sapiens) [GDP-L-FS (246-260)]
[1]
  Positive wells % Proliferation: 6.90%
  Positive patients % Proliferation: 4.76%
[2]
  Positive wells % IFNγ release: 8.85%

## MEVGWYRPPFSRVVHLYRNGK (listed as Homo sapiens) [MOG (35-55)]
[1]
  Positive wells % Proliferation: 3.61%
  Positive patients % Proliferation: 1.92%
[3]
  Patients classified as responders to the peptide(s): 10.4%
[2]
  Positive wells % IFNγ release: 13.49%

## LSRFSWGAEGQRPGFGYGG (listed as Homo sapiens) [MBP (111-129)]
[1]
  Positive wells % Proliferation: 1.20%
  Positive patients % Proliferation: 0.96%
[2]
  Positive wells % IFNγ release: 6.75%

## FRFTPFKQAVKETCA (listed as Homo sapiens) [GDP-L-FS (296-310)]
[1]
  Positive wells % Proliferation: 6.43%
  Positive patients % Proliferation: 4.76%
[2]
  Positive wells % IFNγ release: 12.65%
